Measured values from publication PMC3682772 (MedChemComm, 2012).

Columns and labels:
[1] = test system: tubulin; details: read-out: Inhibition of tubulin polymerization IC50; ref [34]; cited from earlier work
[2] = test system: HUVECs capillary-like tubule network; test: HUVEC endothelial tube disruption on Matrigel; format: cell-based, human; details: 2 h treatment of network pre-established over 16 h
[3] = test system: tubulin; test: Inhibition of [3H]colchicine binding to tubulin; details: inhibitor 5 µM; 1 µM tubulin, 5 µM [3H]colchicine
[4] = test system: NCI-H460 non-small cell lung cancer cell line; test: Cytotoxicity, SRB assay, NCI-H460; details: Homo sapiens, NCI-H460, read-out: GI50 SRB assay NCI-H460
[5] = Solubility in water / D2O; format: physicochemical

Structure (SMILES): COc1ccc(/C=C\c2cc(OC)c(OC)c(OC)c2)c(O)c1O [CA1, Combretastatin A-1]
- IC50 [1]: 1.9 µM

Structure (SMILES): COc1ccc(/C=C\c2cc(OC)c(OC)c(OC)c2)cc1O [CA4, combretastatin A-4, reference compound]
- Tubule disruption ([2]; 0.01 µM): tubule disruption activity was detected
- Inhibition of Colchicine binding [3]: 100%

Structure (SMILES): COc1ccc2c(c1N)CCCC=C2c1cc(OC)c(OC)c(OC)c1 [Compound 3]
- Tubule disruption ([2]; 0.10 µM): Tubule disruption and cell rounding was observed
- Tubule disruption ([2]; 1 µM): greatly increased
- GI50 [4]: 0.00469 µM

Structure (SMILES): COc1ccc2c(c1N)CCCC=C2c1cc(OC)c(OC)c(OC)c1.Cl [Compound 16]
- Solubility in water ([5]; hydrochloride salt): limited solubility in water
- Amount completely dissolved ([5]; in approximately 1.0 mL of D2O (NMR study), clear solution took several days): approximately 3 mg
